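A five-concentration, 48-hour dose response in 96-well plates underlies each endpoint, interpolated linearly between surrounding concentrations. GI50 is the concentration that inhibits growth by half. TGI: total growth inhibition.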
Columns and labels:
Test in all cases: NCI-60 cell line screen, 48 h
[1] = test system: IGROV1 ovarian
[2] = test system: UACC-62 melanoma
[3] = test system: SF-295 CNS
[4] = test system: U251 CNS
[5] = test system: HCT-15 colon
[6] = test system: OVCAR-3 ovarian
[7] = test system: NCI-H23 lung
[8] = test system: SF-268 CNS
[9] = test system: M14 melanoma
[10] = test system: UACC-257 melanoma
[11] = test system: MALME-3M melanoma
[12] = test system: MOLT-4 leukemia
[13] = test system: RXF 393 renal
[14] = test system: MCF7 breast
[15] = test system: TK-10 renal
[16] = test system: MDA-MB-231 breast
[17] = test system: T-47D breast
[18] = test system: OVCAR-4 ovarian
[19] = test system: CAKI-1 renal
[20] = test system: HOP-92 NSCLC
[21] = test system: SK-MEL-5 melanoma
[22] = test system: SK-OV-3 ovarian
[23] = test system: 786-0 renal
[24] = test system: NCI/ADR-RES ovarian
[25] = test system: BT-549 breast
[26] = test system: NCI-H226 lung
[27] = test system: HT29 colon
[28] = test system: OVCAR-5 ovarian
[29] = test system: RPMI-8226 leukemia
[30] = test system: OVCAR-8 ovarian
[31] = test system: PC-3 prostate
[32] = test system: SK-MEL-28 melanoma
[33] = test system: SK-MEL-2 melanoma
[34] = test system: A549 NSCLC
[35] = test system: HCC-2998 colon
[36] = test system: ACHN renal
[37] = test system: SNB-19 CNS
[38] = test system: DU-145 prostate
[39] = test system: HS 578T breast
[40] = test system: HCT-116 colon
[41] = test system: SNB-75 CNS
[42] = test system: NCI-H460 lung
[43] = test system: SN12C renal
[44] = test system: UO-31 renal
[45] = test system: HOP-62 NSCLC
[46] = test system: HL-60(TB) leukemia
[47] = test system: K-562 leukemia
[48] = test system: SR leukemia
[49] = test system: EKVX NSCLC
[50] = test system: LOX IMVI melanoma
[51] = test system: CCRF-CEM leukemia
[52] = test system: SF-539 CNS
[53] = test system: COLO 205 colon
[54] = test system: A498 renal
[55] = test system: SW-620 colon
[56] = test system: MDA-MB-435
[57] = test system: KM12 colon
[58] = test system: NCI-H522 lung

## CC(C)c1ccc2c(c1)CCC1C2CCCC1(C)NCc1ccccc1 (stereo unspecified)
[1]
  GI50: 6.43 µM
  TGI: 20.7 µM
[2]
  GI50: 1.96 µM
  TGI: 4.39 µM
[3]
  GI50: 2.17 µM
  TGI: 6.17 µM
[4]
  GI50: 4.69 µM
  TGI: 15.8 µM
[5]
  GI50: 2.87 µM
  TGI: 9.05 µM
[6]
  GI50: 9.34 µM
  TGI: 24.4 µM
[7]
  GI50: 5.48 µM
  TGI: 19.7 µM
[8]
  GI50: 8.98 µM
  TGI: 26.1 µM
[9]
  GI50: 1.97 µM
  TGI: 3.71 µM
[10]
  GI50: 2.52 µM
  TGI: 6.13 µM
[11]
  GI50: 1.92 µM
  TGI: 4.18 µM
[12]
  GI50: 3.25 µM
  TGI: 12.1 µM
[13]
  GI50: 2.44 µM
  TGI: 4.66 µM
[14]
  GI50: 2.53 µM
  TGI: 6.76 µM
[15]
  GI50: 2.71 µM
  TGI: 7.19 µM
[16]
  GI50: 3.31 µM
  TGI: 12.4 µM
[17]
  GI50: 2.22 µM
  TGI: 4.63 µM
[18]
  GI50: 7.26 µM
  TGI: 19.8 µM
[19]
  GI50: 3.22 µM
  TGI: 15.3 µM
[20]
  GI50: 1.95 µM
  TGI: 4.13 µM
[21]
  GI50: 1.82 µM
  TGI: 3.35 µM
[22]
  GI50: 14.3 µM
  TGI: 27.6 µM
[23]
  GI50: 2.43 µM
  TGI: 5.61 µM
[24]
  GI50: 5.84 µM
  TGI: 19.9 µM
[25]
  GI50: 8.42 µM
  TGI: 20.8 µM
[26]
  GI50: 5.38 µM
  TGI: 18.4 µM
[27]
  GI50: 0.78 µM
  TGI: 2.7 µM
[28]
  GI50: 3.48 µM
  TGI: 13.6 µM
[29]
  GI50: 2.02 µM
  TGI: 4.98 µM
[30]
  GI50: 13.5 µM
  TGI: 28.9 µM
[31]
  GI50: 6.06 µM
  TGI: 19.3 µM
[32]
  GI50: 1.98 µM
  TGI: 3.83 µM
[33]
  GI50: 2.04 µM
  TGI: 4.16 µM
[34]
  GI50: 15.5 µM
  TGI: 31.1 µM
[35]
  GI50: 0.608 µM
  TGI: 2.01 µM
[36]
  GI50: 10 µM
  TGI: 22.7 µM
[37]
  GI50: 12.8 µM
  TGI: 26.4 µM
[38]
  GI50: 8.61 µM
  TGI: 24.3 µM
[39]
  GI50: 4.99 µM
  TGI: 23.7 µM
[40]
  GI50: 4.21 µM
  TGI: 14.7 µM
[41]
  GI50: 8.77 µM
  TGI: 21.3 µM
[42]
  GI50: 3.43 µM
  TGI: 12.9 µM
[43]
  GI50: 5.56 µM
  TGI: 19.2 µM
[44]
  GI50: 6.76 µM
  TGI: 21.1 µM
[45]
  GI50: 8.94 µM
  TGI: 21.4 µM
[46]
  GI50: 2.34 µM
  TGI: 6.85 µM
[47]
  GI50: 1.46 µM
  TGI: 10.9 µM
[48]
  GI50: 1.8 µM
  TGI: 6.3 µM
[49]
  GI50: 10.7 µM
  TGI: 24.6 µM
[50]
  GI50: 2.27 µM
  TGI: 7.12 µM
[51]
  GI50: 5.32 µM
  TGI: 27.9 µM
[52]
  GI50: 5.5 µM
  TGI: 18.5 µM
[53]
  GI50: 0.332 µM
  TGI: 1.11 µM
[54]
  GI50: 11.5 µM
  TGI: 24.5 µM
[55]
  GI50: 2.17 µM
  TGI: 6.1 µM
[56]
  GI50: 2.79 µM
  TGI: 9.64 µM
[57]
  GI50: 3.07 µM
  TGI: 11.6 µM
[58]
  GI50: 1.68 µM
  TGI: 3.55 µM
